Here are results for one compound from US5278191A, “Diphenylmethylaminoacetamide derivatives as anti-convulsants” (G. D. Searle & Co., priority 1991, dated 1994).

In series [1] the test system is 3-mercaptopropionic acid (3-MPA)-induced convulsions. Put plainly: 3-MPA-induced convulsions, protection of mice. The following applies: 3-MPA 120 mg/kg s.c.; for Number of Mice Protected From 3-MPA-Induced Convulsions: total protected of two groups of 5 mice. In kind it is in vivo, male Swiss albino mice. How it is done:
(§1) Treatment of a mammal afflicted by or susceptible to certain CNS disorders is accomplished by administration of a therapeutically-effective amount of a compound of Formula I. In particular, Compounds #1-19 of Tables I and II were evaluated by in vitro and in vivo animal model assays to determine the pharmacological properties of such compounds and their likely suitability for use as therapeutic drugs in humans. These biological assays, as described below, consisted of prevention of induced convulsions in mice, determination of acute toxicity in mice and animal behavior assays. Except as otherwise specified, the animals used in the in vivo tests were male Swiss albino mice weight 22 to 33 g [CD1, Charles River, France], housed in groups of 10 on a 12-hour dark-light cycle for at least one week before use and fasted overnight prior to testing.
Compounds of Formula I were evaluated as inhibitors of convulsions and death induced by different convulsant agents: 3-mercaptopropionic acid (3-MPA; 120 mg/kg subcutaneously), pentylenetetrazole (PTZ, 55 mg/kg intravenously) and supramaximal electroconvulsive shocks (ECS evoked by a current intensity of 48 mA, 50 Hz. 0.2 sec duration, 10 msec square pulse, corneal electrodes) [W. van Dorsser, D. Barris, A. Cordi and J. Roba, Arch. Int. Pharmacodyn., 266, 239-249 (1983)]. The compounds of the invention were administered orally at a dosage of either 100 mg/kg or 30 mg/kg in a volume of 10 ml/kg each to 5 mice at intervals of 30 minutes or 2 hours before convulsions were induced. The number of mice protected against tonic convulsions and the number of dead mice were noted. Results are given in Table III as a score which represents the total number of mice protected for two groups of 5 animals (3-MPA).
(§2) Based upon data generated from the previously-described anti-convulsant experiments, ED50 values were calculated at which Compound #18 inhibits convulsions induced by the convulsant agents listed in Table V.

The test system of series [2] is supramaximal electroconvulsive shocks (ECS)-induced convulsions. Briefly: Supramaximal electroconvulsive shock (ECS) induced convulsions. The following applies: Mus musculus; oral; ECS 48 mA, 50 Hz, 0.2 sec; read-out: Inhibition of Convulsions (ED50), ECS. The series is classed as in vivo, male Swiss albino mice. On the procedure: (§3) Treatment of a mammal afflicted by or susceptible to certain CNS disorders is accomplished by administration of a therapeutically-effective amount of a compound of Formula I. In particular, Compounds #1-19 of Tables I and II were evaluated by in vitro and in vivo animal model assays to determine the pharmacological properties of such compounds and their likely suitability for use as therapeutic drugs in humans. These biological assays, as described below, consisted of prevention of induced convulsions in mice, determination of acute toxicity in mice and animal behavior assays. […]
(§4) Compounds of Formula I were evaluated as inhibitors of convulsions and death induced by different convulsant agents: 3-mercaptopropionic acid (3-MPA; 120 mg/kg subcutaneously), pentylenetetrazole (PTZ, 55 mg/kg intravenously) and supramaximal electroconvulsive shocks (ECS evoked by a current intensity of 48 mA, 50 Hz. 0.2 sec duration, 10 msec square pulse, corneal electrodes) [W. van Dorsser, D. Barris, A. Cordi and J. Roba, Arch. […]
as §2

The test system of series [3] is pentylenetetrazole (PTZ)-induced convulsions. Put plainly: Pentylenetetrazole (PTZ) induced convulsions. The following applies: Mus musculus; oral; PTZ 55 mg/kg i.v.; read-out: Inhibition of Convulsions (ED50), PZT. In kind it is in vivo, male Swiss albino mice. How it is done:
as §3, §4, §2

Series [4] can be described thus: Acute toxicity after oral administration. Particulars: mouse, in vivo, mice, mortality over 15 days. How it is done:
as §1
(§5) The acute toxicity of compounds of the invention was determined after oral administration of the test compound to mice. Compound to be tested was suspended in a 1% tragacanth gum mucilage, and was administered by means of an intragastric probe to a group of three male mice, which doses varied from 3,000 mg/kg down to about 3 mg/kg. Doses used in the test were determined by observing toxic effects on the mice. The mortality was recorded over a period of 15 days. The LD50 results reported in Table V were calculated according to published methods [Lichtfield and Wilcoxon, J. Pharmacol. Exp. Ther., 96, 99 (1949)] and expressed in mg or test compound per kilogram of mouse body weight.

Series [5] relates to mice. Also noted: species or system male Swiss albino mice. The following applies: mouse, in vivo, po. How it is done:
as §1, §5
Behavioral effects of compounds of the invention on animals were determined by observations taken at 5 to 6 hours and at 24 hours after administration of compounds in the acute toxicity studies. Determinations were made based on a method derived from that of S. Irwin [See R. A. Turner, Screening Methods in Pharmacology, Chapter 3, pages 22-34, Academic Press, N.Y. (1965)]. If an anomaly were noted, the observation was extended and smaller doses were tested. Possible types of behavior to be observed are as follows: analgesia (AAG), convulsions (CON), depression (DEP), exophthalmia (EOP), excitation (EXC), hyperalgesia (HAG), hypothermia (ATH), hypotonia (ATN), piloerection (PIE), palpebral ptosis (PTO), reduction of the pinna reflex (RPI), reduction of the rearing reflex (RRE), reduction of the flexion reflex (RRF), sedation (SED), tremors (TRE), cyanosis (CYA), diarrhea (DIA), increase of the pinna reflex (HPI), increase of the flexion reflex (HRF), dyspnea (DYS). Behaviors observed are reported in Table IV by numbers which represent the dose at which the behavior is observed.

In series [6] the test system is afterdischarge-like spike activity. Put plainly: Chronic focal epilepsy assay (cobalt powder on frontal cortex, EEG). The series is classed as in vivo. Particulars: intraperitoneal, rat. An excerpt:
In a model of chronic focal epilepsy where cobalt powder is placed on rat frontal cortex, the animals develop, after several days, chronic expression of afterdischarge-like spike activity which can be recorded by EEG.

Series [7] deals with 5HTP-induced head twitch. Put plainly: 5HTP-induced head twitch. In kind it is in vivo, mice. How it is done:
as §1
Compound #18 was evaluated for inhibition of head twitches produced in mice by administration of L-5-hydroxytryptophan (5HTP, 10 mg/kg intraperitoneously) after nialamide treatment (50 mg/kg intraperitoneal, 22 hours before the test). The head twitches were counted for 45 min. starting 15 min. after 5HTP administration. [E. Friedmann & al.; Europ. J. Pharmocol., 89, 69-76 (1983)].

The subject of series [8] is hypomotility induced by the α2 agonist clonidine. Put plainly: Clonidine-induced hypomotility. Particulars: 10 mg/kg; clonidine 150 mg/kg i.p.; eight mice, 90 min after clonidine. The series is classed as in vivo. How it is done:
as §1
Given alone, clonidine inhibits spontaneous locomotor and rearing activity. Eight test mice were treated with Compound #18 and subsequently with clonidine ([…], intraperitoneal). Then, 90 min. after clonidine administration the mice were placed in a rectangular open field of 47×53 cm, having a floor divided into 36 boxes of about 8×9 cm. The number of boxes through which the animal goes in 3 min. and the number of rearing episodes were noted.

Take `NC(=O)CNC(c1ccccc1)c1ccccc1` [Compound 18, 2-diphenylmethylaminoacetamide]: the ED50 (usually the dose at which the effect has come halfway, by size or by number of responders) in series [1] (Mus musculus, oral, read-out: Inhibition of Convulsions (ED50), 3-MPA) amounted to 9.3 mg/kg; in series [2] it was 26 mg/kg; in series [3] it was 66 mg/kg; in series [7] (Mus musculus, po, 2 hours before 5HTP (10 mg/kg i.p.), nialamide pretreated mice, read-out: ED50 for inhibition of 5HTP-induced head twitches), 10 mg/kg. Further, the “Number of Mice Protected From 3-MPA-Induced Convulsions” value in series [1] (oral 30 mpk, interval 30 min) worked out at 9 mice; in series [1] (oral 100 mpk, interval 30 min), 10 mice; in series [1] (oral 100 mpk, interval 2 hr), 10 mice. Further, the median lethal dose (LD50) (as a rule, the dose at which mortality reaches 50%) at 360 h in series [4] turned out to be 1020 mg/kg. Moreover, the “Behavior: dose at which depression (DEP) is observed” value in series [5] was 1000 mg/kg. The “Behavior: dose at which palpebral ptosis (PTO) is observed” value in series [5] turned out to be 1000 mg/kg. In addition, the “time over which inhibition of spike activities was observed” value in series [6] (threshold dose of 50 mg/kg) lay in the range of 14 to 90 min. For the same compound, in series [6] (ip, read-out: threshold dose for inhibiting spike activities), the minimal effective dose stood at 50 mg/kg. The “effect on 5HTP-induced head twitch” value in series [7] (mice, nialamide treatment) was “inhibited 5HTP-induced head twitch”. Besides, the “effect on clonidine-induced hypomotility” value in series [8] is listed as “seems unable to alter the hypomotility”.
